Test results as given in publication PMC5826148, “Whole-Cell Screen of Fragment Library Identifies Gut Microbiota Metabolite Indole Propionic Acid as Antitubercular” (Antimicrobial Agents and Chemotherapy, 2018).
≈ marks a conversion by molar mass, not a printed value. Like-named read-outs stand apart in the source and are kept apart here.

Legend:
M. tuberculosis H37Rv [1] = assay: M. tuberculosis growth inhibition dose-response (MIC50), turbidity readout; assay type: cell-based, Mycobacterium tuberculosis; conditions: Mycobacterium tuberculosis, 240 h, read-out: Antibacterial activity (MIC50) M. tuberculosis
M. tuberculosis H37Rv [2] = assay: Bactericidal activity, CFU enumeration on agar after treatment; assay type: cell-based, Mycobacterium tuberculosis; conditions: Mycobacterium tuberculosis, H37RV, read-out: Bactericidal activity (log reduction) at 1 mM
M. tuberculosis = assay: Growth inhibition in acidic medium (pH 6.2); assay type: cell-based, Mycobacterium tuberculosis
M. bovis BCG Pasteur = assay: microbe, parasite or virus in culture; assay type: cell-based; conditions: Mycobacterium tuberculosis variant bovis BCG, BCG, read-out: Antibacterial activity (MIC50) M. bovis BCG
M. smegmatis = assay: Spectrum of activity: M. smegmatis growth inhibition; assay type: cell-based; conditions: Mycolicibacterium smegmatis, 24 h, read-out: Antibacterial activity (MIC50) M. smegmatis
M. avium = assay: Spectrum of activity: M. avium growth inhibition; assay type: cell-based; conditions: Mycobacterium avium, 96 h, read-out: Antibacterial activity (MIC50) M. avium
M. abscessus = assay: Spectrum of activity: M. abscessus growth inhibition; assay type: cell-based; conditions: Mycobacteroides abscessus, 72 h, read-out: Antibacterial activity (MIC50) M. abscessus
Staphylococcus aureus = assay: Spectrum of activity: S. aureus growth inhibition; assay type: cell-based; conditions: Staphylococcus aureus, read-out: Antibacterial activity (MIC50) S. aureus
Escherichia coli = assay: Spectrum of activity: E. coli growth inhibition; assay type: cell-based; conditions: Escherichia coli, read-out: Antibacterial activity (MIC50) E. coli
[3] = tested on: human red blood cells (RBCs); assay: Red blood cell lysis assay; conditions: hemolysis
[4] = Cytotoxicity assay, THP-1 cells (CellTiter 96 AQueous One); conditions: human
[5] = Cytotoxicity assay, HepG2 cells (CellTiter 96 AQueous One); conditions: human, HepG2 cells
[6] = M. tuberculosis, 1 mM, log CFU/ml reduction from initial inoculum
[7] = Mycobacterium tuberculosis, pH 6.2; read-out: Activity (MIC50) in acidic medium (pH 6.2)

| SMILES | MIC50 (M. tuberculosis H37Rv [1]; H37Rv, 10 days) [µM] | log reduction at 1000 µM (M. tuberculosis H37Rv [2]; [6]) | MIC50 (M. tuberculosis; [7]) [µM] | MIC50 (M. bovis BCG Pasteur) [µM] | MIC50 (M. smegmatis; 1 day) [µM] | MIC50 (M. avium; 4 days) [µM] | MIC50 (M. abscessus; 3 days) [µM] | MIC50 (Staphylococcus aureus; LB medium, overnight) [µM] | MIC50 (Escherichia coli; LB medium, overnight) [µM] | RBCs HC50 [3] | CC50 at 24 h [4] [µM] | CC50 at 24 h [5] [µM] | MIC50 (M. tuberculosis H37Rv [1]; H37RV) [µM] | log reduction at 1000 µM (M. tuberculosis H37Rv [2]) | MIC50 (M. tuberculosis; Mycobacterium tuberculosis, pH 6.2, read-out: Activity (MIC50) in acidic medium (pH 6.2)) [µM] | MIC50 (M. smegmatis) [µM] | MIC50 (M. avium) [µM] | MIC50 (M. abscessus) [µM] | MIC50 (Staphylococcus aureus) [µM] | MIC50 (Escherichia coli) [µM] |
| --- | --- | --- | --- | --- | --- | --- | --- | --- | --- | --- | --- | --- | --- | --- | --- | --- | --- | --- | --- | --- |
| O=c1cc(C(F)(F)F)c2ccc(O)cc2o1 [Fragment F2, 7-Hydroxy-4-(trifluoromethyl)-2H-chromen-2-one] | 213 (≈ 49 µg/mL) | 1.1 | 179 (≈ 41.2 µg/mL) | 329 (≈ 75.7 µg/mL) | 476 (≈ 110 µg/mL) | > 500 | > 500 | 198 (≈ 45.6 µg/mL) | 432 (≈ 99.4 µg/mL) | >1,000 μM | 879 | 987 | – | – | – | – | – | – | – | – |
| O=C(O)c1ccc(-c2ccccc2)s1 [Fragment F10, 5-Phenylthiophene-2-carboxylic acid] | 186 (≈ 38 µg/mL) | 1.46 | 97 (≈ 19.8 µg/mL) | 397 (≈ 81.1 µg/mL) | 345 (≈ 70.5 µg/mL) | > 500 | 247 (≈ 50.4 µg/mL) | > 500 | > 500 | >1,000 μM | 544 | 612 | – | – | – | – | – | – | – | – |
| c1ccc2c(c1)[nH]c1cnccc12 [Fragment F6, 9H-Pyrido[3,4-b]indole] | – | – | – | 205 (≈ 34.5 µg/mL) | – | – | – | – | – | 787 µM | – | – | 97 (≈ 16.3 µg/mL) | 0.43 | 113 (≈ 19 µg/mL) | 121 (≈ 20.4 µg/mL) | 302 (≈ 50.8 µg/mL) | 254 (≈ 42.7 µg/mL) | > 500 | 302 (≈ 50.8 µg/mL) |
| Cc1oc(-c2ccc(Cl)cc2)cc1C(=O)N(C)C [Fragment F8, 5-(4-Chlorophenyl)-N,N,2-trimethyl-3-furamide] | 135 (≈ 35.6 µg/mL) | 1.44 | 93 (≈ 24.5 µg/mL) | 189 (≈ 49.8 µg/mL) | 233 (≈ 61.4 µg/mL) | 169 (≈ 44.6 µg/mL) | 322 (≈ 84.9 µg/mL) | > 500 | > 500 | 433 µM | 234 | 589 | – | – | – | – | – | – | – | – |
| OCc1csc(-c2ccc(C(F)(F)F)cc2)n1 [Fragment F28, {2-[4-(Trifluoromethyl)phenyl]-1,3-thiazol-4-yl}methanol] | 434 (≈ 113 µg/mL) | 1.21 | 215 (≈ 55.7 µg/mL) | 398 (≈ 103 µg/mL) | 235 (≈ 60.9 µg/mL) | 325 (≈ 84.3 µg/mL) | 253 (≈ 65.6 µg/mL) | > 500 | > 500 | 786 µM | 940 | > 1000 | – | – | – | – | – | – | – | – |
| CSc1cc(-c2ccc(F)cc2)n[nH]1 [Fragment F11, 3-(4-Fluorophenyl)-5-(methylsulfanyl)-1H-pyrazole] | 195 (≈ 40.6 µg/mL) | 3.06 | 140 (≈ 29.2 µg/mL) | 308 (≈ 64.1 µg/mL) | 398 (≈ 82.9 µg/mL) | 498 (≈ 104 µg/mL) | 271 (≈ 56.4 µg/mL) | > 500 | 344 (≈ 71.6 µg/mL) | >1,000 μM | 765 | 945 | – | – | – | – | – | – | – | – |
| O=C(O)c1csc2ccc(Cl)cc12 [Fragment F25, 5-Chloro-1-benzothiophene-3-carboxylic acid] | 319 (≈ 67.8 µg/mL) | 2.1 | 94 (≈ 20 µg/mL) | 367 (≈ 78 µg/mL) | 98 (≈ 20.8 µg/mL) | 489 (≈ 104 µg/mL) | 257 (≈ 54.7 µg/mL) | > 500 | > 500 | 945 µM | 876 | 765 | – | – | – | – | – | – | – | – |
| Cc1n[nH]c(C)c1Oc1ccc(Cl)cc1 [Fragment F15, 4-(4-Chlorophenoxy)-3,5-dimethyl-1H-pyrazole] | 235 (≈ 52.3 µg/mL) | 2.43 | 157 (≈ 35 µg/mL) | 156 (≈ 34.7 µg/mL) | 198 (≈ 44.1 µg/mL) | 174 (≈ 38.7 µg/mL) | 256 (≈ 57 µg/mL) | 79 (≈ 17.6 µg/mL) | > 500 | 453 µM | 345 | 676 | – | – | – | – | – | – | – | – |
| CCOC(=O)c1c(N)sc(C)c1-c1ccccc1 [Fragment F19, Ethyl 2-amino-5-methyl-4-phenylthiophene-3-carboxylate] | 270 (≈ 70.6 µg/mL) | 1.98 | 117 (≈ 30.6 µg/mL) | 267 (≈ 69.8 µg/mL) | 491 (≈ 128 µg/mL) | 214 (≈ 55.9 µg/mL) | 206 (≈ 53.8 µg/mL) | 344 (≈ 89.9 µg/mL) | > 500 | 453 µM | 247 | 233 | – | – | – | – | – | – | – | – |
| Clc1ccc2nc(N3CCCNCC3)sc2c1 [Fragment F12, 6-Chloro-2-(1,4-diazepan-1-yl)-1,3-benzothiazole] | 198 (≈ 53 µg/mL) | 2.8 | 104 (≈ 27.8 µg/mL) | 137 (≈ 36.7 µg/mL) | 221 (≈ 59.2 µg/mL) | 157 (≈ 42 µg/mL) | 351 (≈ 94 µg/mL) | > 500 | 324 (≈ 86.8 µg/mL) | >1,000 μM | 124 | 187 | – | – | – | – | – | – | – | – |
